In patent US4098823A, “Monospiroalkyl derivatives of prostaglandins” (Miles Laboratories, Inc., priority 1977, dated 1978):

Legend:
Gastric Secretion = assay: Effects on Gastric Secretion in the Rat; assay type: in vivo; settings: pylorus-ligated rat, subcutaneous, 2 x 1.5 mg/kg (total 3.0 mg/kg), 4 hours
Experimental: A procedure based on that described by Lipmann (J. Pharm. Pharmacol., 21:335 [1968]) was used to assess the influence of test compounds on gastric secretion. Rats of one sex weighing 150 to 200 g were randomly divided into groups of six animals each and fasted for 48 hours previously to the experiments, water being available adlibitum. The animals were anesthetized with ether, the abdomen was opened through a midline incision and the pylorus was ligated. Test compounds were diluted from stock solution so as to administer a dose of 1.5 mg/kg in a volume equivalent to 1 ml/kg. Subcutaneous injections were applied immediately after surgery and again 2 hours later, so that a total dose of 3.0 mg/kg was administered. Dilutions were made with phosphate buffer (pH 7.38) as recommended by Lee et al. (Prostaglandins 3:29 [1973]), in order to insure adequate stability of drugs at the subcutaneous depot. Each compound was tested in one group of rats; an additional control group received only the vehicle.
Four hours after pyloric ligation the animals were killed with ether, the cardias ligated and the stomachs removed. The volume of gastric secretion was measured and the contents centrifuged at 500 rpm for 10 minutes. Total acid in the supernatant was titrated against a 0.1 N sodium hydroxide solution and the amount expressed in mEq.
Volume and total acid values of the treated group were compared with those of the controls by the "T" test. Antisecretory activity was scored according to the following scale: […]

Femoral Blood Flow = assay: Effects on Femoral Blood Flow in the Dog; assay type: in vivo; settings: anesthetized mongrel dog, intraarterial, 0.001 to 10 mcg
Experimental: The peripheral vasodilator or constrictor effects of these compounds were determined in mongrel dogs of either sex, weighing between 10 and 20 kg anesthestized intravenously with 35 mg/kg of sodium pentobarbital. An external iliac artery was dissected immediately above the femoral arch for a length of approximately 5 cm and a previously calibrated, non-connulating electromagnetic flowmeter sensor with a lumen between 2.5 and 3.5 mm was placed snugly around the vessel. Cannulas were placed in a branch of the artery arising distally to the location of the flowmeter sensor for intraarterial drug administrations, in the contralateral femoral artery for systemic blood pressure recordings and in the trachea for artificial respiration with room air. Femoral blood flow and systemic blood pressure were continously recorded with an electromagnetic flowmeter and pressure tranducer, respectively.
After an adequate control period, test compounds were injected intraarterially at one log-spaced doses ranging from 0.001 to 10 mcg., in a volume of 0.5 ml and at 5 to 10 minute intervals. Maximum changes in bloodflow, as well as any variations in blood pressure, were tabulated for each dose in absolute values (ml/min. and mmHg). The calculations were made taking as control values those existing immediately before administration of each dose. The direction of the observed change (plus for increase and minus for decrease) was also noted. The dose changing bloodflow by 100 ml/min (ED100 ml/min) was calculated graphically and was used for scoring activity as follows: […]

[1] = tested on: Blood Pressure and Heart Rate; assay: Effects on Blood Pressure and Heart Rate in the Anesthetized Cat; assay type: in vivo; settings: Felis catus, intravenous, 0.01 to 10.0 mcg/kg, scored only on hypotension, read-out: Test D Activity Value (ED50 mmHg, decrease in blood pressure);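 further: Anesthetized cats given intravenous doses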
Experimental: The acute effects of test compounds on blood pressure and heart rate were determined in cats of either sex anesthetized with a mixture of pentobarbital sodium (35 mg/kg, i.v.) and barbital sodium (100 mg/kg, i.v.). Cannulas were placed in the trachea to allow adequate spontaneous ventilation, in a femoral artery for blood pressure recording with a strain gage transducer, and in a saphenous vein for drug administration. Heart rate was recorded by means of a cardiotachometer driven by the R wave of the electrocardiogram. After a period of 10 minutes of stable recordings of blood pressure and heart rate, the test compound was administered intravenously at doses increasing from 0.01 to 10.0 mcg/kg, spaced one log and injected at 10 minutes intervals. All doses were injected in a volume of 0.1 ml/kg. Modifications of blood pressure and heart rate induced by the test compound were expressed both in absolute units (mmHg and beats/minutes) and as percent of values recorded immediately before administration of each dose. Biphasic responses were tabulated in the order in which they occur. The direction of the observed changes was also noted (+ for increases and - for decreases).
Activity of compounds in this test was judged only on the basis of the degree of hypotension observed. Thus, the ED50 mmHg (dose decreasing blood pressure by 50 mmHg) was calculated graphically and the compound scored according to the following scale: […]

rat stomach fundus = assay: Cascade Assay, stomach (smooth muscle stimulant effect); assay type: cell-based; settings: superfused, 50% of maximum (PGE1)
Experimental: (§1) The smooth muscle stimulant effects of test compounds were determined simultaneously in four different tissues that are known to be reactive to naturally occurring prostaglandins. Segments of rat stomach fundus, rat colon, chick rectum and rabbit aortic strip were obtained as described by: Vane, J. R., Brit. J. Pharmacol., 12: 344 (1957); Regoli, D. and Vane, J. R., Brit. J. Pharmacol., 23: 351 (1964); Mann, M. and West, G. B., Brit. J. Pharmacol., 5: 173 (1950); and Furchgott, R. F. and Bhadrakom, R., J. Pharmacol. Exper. Ther., 108: 129 (1953). One end of each preparation was tied to the bottom of a 10 ml tissue chamber and the other to a force displacement transducer (Grass FT-03) for continuous tension recording. The stomach, colon, and rectum segments were stretched to an initial tension of 1 g, while the aortic strip was subjected to 4 g. All preparations were left undisturbed for 1 hour prior to testing. The chambers were equipped with an external jacket through which water, maintained at 40° C, was circulated. Preparations were arranged one beneath the other in descending order (aorta, stomach, colon and rectum). Provision was made for bathing the four tissues successively so that they were superfused with the same fluid (Gaddum, H. J., Brit. J. Pharmacol., 6: 321 [1953]. The bathing fluid consisted of: Krebs bicarbonate solution aerated with a mixture of 95% O2 and 5% CO2 and warmed at 37° C; atropine sulphate (0.1 mcg/ml), phenoxybenzamine hydrochloride (0.1 mcg/ml), propranolol hydrochloride (3.0 mcg/ml), methysergide maleate (0.2 mcg/ml) and brompheniramine maleate (0.1 mcg/ml) were added to eliminate the possibility of smooth muscle responses being due to stimulation of cholinergic, adrenergic, serotonin or histamine receptors. The fluid was circulated by means of a roller pump and was allowed to drip over the preparations at a rate of 10 ml/minute.
(§2) Test compounds were diluted from stock solutions so as to administer quantities ranging from 0.001 100,000 ng in a volume of 0.5 ml. The compounds were applied by dripping on the uppermost tissue, at intervals of 10 to 20 minutes. Maximal increases in tension after each dose were measured and the results were used to plot dose-response curves. ED50 data (doses necessary to produce a response 50% of maximum) were then calculated graphically for each tissue.
(§3) Activity in each tissue was scored according to the following scale: […]

rat colon = assay: Cascade Assay, colon (smooth muscle stimulant effect); assay type: cell-based; settings: superfused, 50% of maximum (PGF2α)
Experimental: as §1, §2, §3

chick rectum = assay: Cascade Assay, rectum (smooth muscle stimulant effect); assay type: cell-based; settings: superfused, 50% of maximum (PGE1)
Experimental: as §1, §2, §3

rabbit aortic strip = assay: Cascade Assay, aorta (smooth muscle stimulant effect); assay type: cell-based; settings: superfused, 50% of maximum (PGA2)
Experimental: as §1, §2, §3

Rat Uterus = assay: Effects on the Rat Uterus in Vitro; assay type: cell-based; settings: Rattus norvegicus; in vitro, 29° C; response 50% that of carbachol; read-out: Test F Rat Uterus, Activity Value (ED50)
Experimental: The uterine stimulant effect of test compounds was determined in segments of uterus obtained from rats (140-160 g) pretreated subcutaneously with 1 mg/kg of diethyl-stilbesterol 18 hours before the experiment. The tissues were placed in 10 ml chambers filled with de-Jalon solution at 29° C, were aerated and bubbled with 95% O2 and 5% CO2, and were prepared for isometric recording with force displacement transducers. Preparations were stretched to an initial tension of 1 g and were left undisturbed for 30 minutes. Carbachol (1 mcg/ml) was then added to the bath and a response was recorded. After a 10 minute interval the carbachol procedure was repeated. Responses to increasing concentrations of a test compound (0.001 to 10 mcg/ml with one log intervals) were then recorded every 10 minutes. Preparations were washed four times after each response. All doses of compounds were administered in a 0.1 ml volume. Because it has been observed that the magnitude of the second response to carbachol (approximately 10% greater than the first) is close to the maximal response of the tissue, such value was taken as a measure of the sensitivity of a particular segment. Responses to each concentration of the test compound were expressed in terms of percentage of the second response to carbachol and the ED50 (dose producing a response 50% that of carbachol) was calculated graphically. Activity was scored according to the following scale: […]

COC(=O)CCCCCC[C@H]1C(=O)C[C@@H](O)[C@@H]1/C=C/[C@@H](O)C1CC2(CCC2)C1 [TR-4121, Methyl 7-{3R-hydroxy-5-oxo-2R-[3S-hydroxy-3-(spiro[3.3]hept-2-yl)-1E-propenyl]cyclopent-1R-yl}heptanoate]
Test B Activity Value (% decrease in acidity, inhibition of gastric secretion) (Gastric Secretion): 1 (26-50, not significant) | Test C Activity Value (ED100 ml/min, increase in femoral blood flow) (Femoral Blood Flow): 2 (0.11 - 1.0) | ED (50 mmHg) [1]: > 0.01 mg/kg | Test E Cascade Assay, Stomach, Activity Value (ED50) (rat stomach fundus): 0 (>10000) | Test E Cascade Assay, Colon, Activity Value (ED50) (rat colon): 0 (>10000) | Test E Cascade Assay, Rectum, Activity Value (ED50) (chick rectum): 0 (>10000) | Test E Cascade Assay, Aorta, Activity Value (ED50) (rabbit aortic strip): 0 (>10000) | EC50 (Rat Uterus): > 10 µg/mL

COC(=O)CCCCCC[C@@H]1[C@@H](/C=C/[C@@H](O)C2CC3(CCC3)C2)[C@H](O)C[C@@H]1O [TR-4139, Methyl 7-{3R,5S-dihydroxy-2R-[3S-hydroxy-3-(spiro[3.3]hept-2-yl)-1E-propenyl]cyclopent-1R-yl}heptanoate]
Test B Activity Value (% decrease in acidity, inhibition of gastric secretion) (Gastric Secretion): 0 (<26) | Test C Activity Value (ED100 ml/min, increase in femoral blood flow) (Femoral Blood Flow): 0 (>10.0) | ED (50 mmHg) [1]: > 0.01 mg/kg | Test E Cascade Assay, Stomach, Activity Value (ED50) (rat stomach fundus): 0 (>10000) | Test E Cascade Assay, Colon, Activity Value (ED50) (rat colon): 0 (>10000) | Test E Cascade Assay, Rectum, Activity Value (ED50) (chick rectum): 0 (>10000) | Test E Cascade Assay, Aorta, Activity Value (ED50) (rabbit aortic strip): 0 (>10000) | EC50 (Rat Uterus): > 10 µg/mL

O=C(O)CCCCCC[C@H]1C(=O)CC[C@@H]1/C=C/[C@H](O)C1CC2(CCC2)C1 (relative stereo) [TR-4137, dl 7-{5-oxo-2R-[3R-hydroxy-3-(spiro[3.3]hept-2-yl)-1E-propenyl]cyclopent-1R-yl}heptanoic acid]
Test B Activity Value (% decrease in acidity, inhibition of gastric secretion) (Gastric Secretion): 3 (51-75) | Test C Activity Value (ED100 ml/min, increase in femoral blood flow) (Femoral Blood Flow): 3 (0.01 - 0.1) | ED (50 mmHg) [1]: 0.00011 to 0.001 mg/kg | Test E Cascade Assay, Stomach, Activity Value (ED50) (rat stomach fundus): 1 (1001 - 10000) | Test E Cascade Assay, Colon, Activity Value (ED50) (rat colon): 0 (>10000) | Test E Cascade Assay, Aorta, Activity Value (ED50) (rabbit aortic strip): 0 (>10000) | EC50 (Rat Uterus): > 10 µg/mL

O=C(O)CCC/C=C\C[C@H]1C(=O)CC[C@@H]1/C=C/[C@@H](O)C1CC2(CCC2)C1 (relative stereo) [TR-4146, dl 7-{5-oxo-2R-[3S-hydroxy-3-(spiro[3.3]hept-2-yl)-1E-propenyl]cyclopent-1R-yl}hept-5Z-enoic acid]
Test B Activity Value (% decrease in acidity, inhibition of gastric secretion) (Gastric Secretion): 0 (<26) | Test C Activity Value (ED100 ml/min, increase in femoral blood flow) (Femoral Blood Flow): 0 (>10.0) | ED (50 mmHg) [1]: > 0.01 mg/kg | Test E Cascade Assay, Stomach, Activity Value (ED50) (rat stomach fundus): 1 (1001 - 10000) | Test E Cascade Assay, Colon, Activity Value (ED50) (rat colon): 2 (101 - 1000) | Test E Cascade Assay, Aorta, Activity Value (ED50) (rabbit aortic strip): 0 (>10000) | EC50 (Rat Uterus): > 10 µg/mL

O=C(O)CCCCCC[C@H]1C(=O)CC[C@@H]1/C=C/[C@@H](O)C1CC2(CCC2)C1 (relative stereo) [TR-4136, dl 7-{5-oxo-2R-[3S-hydroxy-3-(spiro[3.3]hept-2-yl)-1E-propenyl]cyclopent-1R-yl}heptanoic acid]
Test B Activity Value (% decrease in acidity, inhibition of gastric secretion) (Gastric Secretion): 1 (26-50, not significant) | Test C Activity Value (ED100 ml/min, increase in femoral blood flow) (Femoral Blood Flow): 0 (>10.0) | ED (50 mmHg) [1]: > 0.01 mg/kg | Test E Cascade Assay, Stomach, Activity Value (ED50) (rat stomach fundus): 2 (101 - 1000) | Test E Cascade Assay, Colon, Activity Value (ED50) (rat colon): 0 (>10000) | Test E Cascade Assay, Rectum, Activity Value (ED50) (chick rectum): 1 (1001 - 10000) | Test E Cascade Assay, Aorta, Activity Value (ED50) (rabbit aortic strip): 0 (>10000) | EC50 (Rat Uterus): > 10 µg/mL

O=C(O)CCCCCC[C@H]1C(=O)CC[C@@H]1/C=C/[C@@H](O)C1CCC2(CCCCC2)CC1 (relative stereo) [TR-4021, dl 7-{5-oxo-2R-[3S-hydroxy-3-(spiro[5.5]undecan-3-yl)-1E-propenyl]cyclopent-1R-yl} heptanoic acid]
Test B Activity Value (% decrease in acidity, inhibition of gastric secretion) (Gastric Secretion): 0 (<26) | Test C Activity Value (ED100 ml/min, increase in femoral blood flow) (Femoral Blood Flow): 0 (>10.0) | ED (50 mmHg) [1]: > 0.01 mg/kg | Test E Cascade Assay, Stomach, Activity Value (ED50) (rat stomach fundus): 4 (<10) | Test E Cascade Assay, Colon, Activity Value (ED50) (rat colon): 0 (>10000) | Test E Cascade Assay, Rectum, Activity Value (ED50) (chick rectum): 0 (>10000) | Test E Cascade Assay, Aorta, Activity Value (ED50) (rabbit aortic strip): 0 (>10000) | EC50 (Rat Uterus): > 10 µg/mL

COC(=O)CCCCCC[C@@H]1[C@@H](/C=C/[C@@H](O)C2CC3(CCC3)C2)[C@H](O)C[C@H]1O [TR-4138, Methyl 7-{3R, 5R-dihydroxy-2R-[3S-hydroxy-3-(spirol[3.3]hept-2-yl)-1E-propenyl]cyclopent-1R-yl}heptanoate]
ED (50 mmHg) [1]: > 0.01 mg/kg | Test E Cascade Assay, Stomach, Activity Value (ED50) (rat stomach fundus): 0 (>10000) | Test E Cascade Assay, Colon, Activity Value (ED50) (rat colon): 0 (>10000) | Test E Cascade Assay, Rectum, Activity Value (ED50) (chick rectum): 0 (>10000) | Test E Cascade Assay, Aorta, Activity Value (ED50) (rabbit aortic strip): 0 (>10000) | EC50 (Rat Uterus): > 10 µg/mL
